# Measurements from patent US11267822B2, “BET bromodomain protein degraders with cleavable linkers” (THE REGENTS OF THE UNIVERSITY OF MICHIGAN, priority 2017, dated 2022).
# Experiments:
# MOLM13 = assay: Cell growth inhibition, CellTiter-Glo Luminescent Cell Viability Assay, MOLM13; type: cell-based; conditions: MOLM13 cells, 4 days
# Protocol: (§1) Cell growth inhibitory activity of representative Compounds of the Disclosure was determined using the CellTiter-Glo® Luminescent Cell Viability Assay. Cells were seeded in 384-well white opaque cell culture plates at a density of 2,000 cells/well with serially diluted compounds and incubated at 37° C. in an atmosphere of 95% air and 5% CO2 for 4 days. Cell viability was determined using the CellTiter-Glo® Luminescent Cell Viability Assay Kit (Promega, Madison, Wis.) according to the manufacture's instruction. Briefly, a volume of CellTiter-Glo® Reagent equal to the volume of cell culture medium was added to each well, and then the plates were incubated at room temperature for 10-20 minutes. The luminescent signal was measured using a Tecan Infinite M1000 multimode microplate reader (Tecan, Morrisville, N.C.). The half maximal inhibitory concentration (IC50) in Table 3 was calculated using the GraphPad Prism 5 software (GraphPad Software, La Jolla, Calif.).
# MDA-MB-231 = assay: Cell growth inhibition, CellTiter-Glo Luminescent Cell Viability Assay, MDA-MB-231; type: cell-based; conditions: MDA-MB-231 cells, 4 days
# Protocol: as §1
"IC50 (MOLM13; Homo sapiens, MOLM-13, 96 h) [nM]","IC50 (MDA-MB-231; Homo sapiens, MDA-MB-231, 96 h) [nM]",Structure (SMILES),also measured
,24.1,"Cc1nnc2n1-c1sc(C#Cc3cnn(CCCC(=O)OCCOCCN4CCC(Nc5cccc6c5CN(C5CCC(=O)NC5=O)C6=O)CC4)c3)c(Cc3ccccc3)c1COC2 (stereo not drawn) [compound 26, 2-(2-(4-((2-(2,6-dioxopiperidin-3-yl)-1-oxoisoindolin-4-yl)amino)piperidin-1-yl)ethoxy)ethyl 4-(4-((3-benzyl-9-methyl-4H,6H-thieno[2,3-e][1,2,4]triazolo[3,4-c][1,4]oxazepin-2-yl)ethynyl)-1H-pyrazol-1-yl)butanoate]",
,23.3,"Cc1nnc2n1-c1sc(C#Cc3cnn(CCCC(=O)OCCOCCOCCN4CCC(Nc5cccc6c5CN(C5CCC(=O)NC5=O)C6=O)CC4)c3)c(Cc3ccccc3)c1COC2 (stereo not drawn) [compound 27, 2-(2-(2-(4-((2-(2,6-dioxopiperidin-3-yl)-1-oxoisoindolin-4-yl)amino)piperidin-1-yl)ethoxy)ethoxy)ethyl 4-(4-((3-benzyl-9-methyl-4H,6H-thieno[2,3-e][1,2,4]triazolo[3,4-c][1,4]oxazepin-2-yl)ethynyl)-1H-pyrazol-1-yl)butanoate]",
4.9,,"Cc1nnc2n1-c1sc(C#Cc3cnn(CCCC(=O)OCCCCc4cccc5c4CN(C4CCC(=O)NC4=O)C5=O)c3)c(Cc3ccccc3)c1COC2 (stereo not drawn) [compound 35, 4-(2-(2,6-dioxopiperidin-3-yl)-1-oxoisoindolin-4-yl)butyl 4-(4-((3-benzyl-9-methyl-4H,6H-thieno[2,3-e][1,2,4]triazolo[3,4-c][1,4]oxazepin-2-yl)ethynyl)-1H-pyrazol-1-yl)butanoate]",
4.6,,"Cc1nnc2n1-c1sc(C#Cc3cnn(CCCC(=O)OCCCc4cccc5c4CN(C4CCC(=O)NC4=O)C5=O)c3)c(Cc3ccccc3)c1COC2 (stereo not drawn) [compound 36, 3-(2-(2,6-dioxopiperidin-3-yl)-1-oxoisoindolin-4-yl)propyl 4-(4-((3-benzyl-9-methyl-4H,6H-thieno[2,3-e][1,2,4]triazolo[3,4-c][1,4]oxazepin-2-yl)ethynyl)-1H-pyrazol-1-yl)butanoate]",
9.1,,"Cc1nnc2n1-c1sc(C#Cc3cnn(CC(=O)OCCCOc4cccc5c4CN(C4CCC(=O)NC4=O)C5=O)c3)c(Cc3ccccc3)c1COC2 (stereo not drawn) [compound 37, 3-((2-(2,6-dioxopiperidin-3-yl)-1-oxoisoindolin-4-yl)oxy)propyl 2-(4-((3-benzyl-9-methyl-4H,6H-thieno[2,3-e][1,2,4]triazolo[3,4-c][1,4]oxazepin-2-yl)ethynyl)-1H-pyrazol-1-yl)acetate]",
,> 100,"Cc1nnc2n1-c1sc(C#Cc3cnn(CC(=O)OCC#Cc4cccc5c4CN(C4CCC(=O)NC4=O)C5=O)c3)c(Cc3ccccc3)c1COC2 (stereo not drawn) [compound 39, 3-(2-(2,6-dioxopiperidin-3-yl)-1-oxoisoindolin-4-yl)prop-2-yn-1-yl 2-(4-((3-benzyl-9-methyl-4H,6H-thieno[2,3-e][1,2,4]triazolo[3,4-c][1,4]oxazepin-2-yl)ethynyl)-1H-pyrazol-1-yl)acetate]",
,24.3,"Cc1nnc2n1-c1sc(C#Cc3cnn(CC(=O)OCCC#Cc4cccc5c4CN(C4CCC(=O)NC4=O)C5=O)c3)c(Cc3ccccc3)c1COC2 (stereo not drawn) [compound 40, 4-(2-(2,6-dioxopiperidin-3-yl)-1-oxoisoindolin-4-yl)but-3-yn-1-yl 2-(4-((3-benzyl-9-methyl-4H,6H-thieno[2,3-e][1,2,4]triazolo[3,4-c][1,4]oxazepin-2-yl)ethynyl)-1H-pyrazol-1-yl)acetate]",

# The next lines start with the molecule.
Structure (SMILES),"IC50 (MOLM13; Homo sapiens, MOLM-13, 96 h) [nM]","IC50 (MDA-MB-231; Homo sapiens, MDA-MB-231, 96 h) [nM]",also measured
"Cc1c(C#Cc2cnn(CCCC(=O)OCCCN3CCC(Nc4cccc5c4CN(C4CCC(=O)NC4=O)C5=O)CC3)c2)sc2c1C(c1ccc(Cl)cc1)=N[C@@H](CC(=O)N1CCN(C)CC1)c1nnc(C)n1-2 (stereo partly drawn) [Cpd. No. 1, 3-(4-((2-(2,6-dioxopiperidin-3-yl)-1-oxoisoindolin-4-yl)amino)piperidin-1-yl)propyl 4-(4-(((S)-4-(4-chlorophenyl)-3,9-dimethyl-6-(2-(4-methylpiperazin-1-yl)-2-oxoethyl)-6H-thieno[3,2-f][1,2,4]triazolo[4,3-a][1,4]diazepin-2-yl)ethynyl)-1H-pyrazol-1-yl)butanoate]",1.1,2.5,
"Cc1c(C#Cc2cnn(CC(=O)OCC#Cc3cccc4c3CN(C3CCC(=O)NC3=O)C4=O)c2)sc2c1C(c1ccc(Cl)cc1)=N[C@@H](C)c1nnc(C)n1-2 (stereo partly drawn) [Cpd. No. 4, 3-(2-(2,6-dioxopiperidin-3-yl)-1-oxoisoindolin-4-yl)prop-2-yn-1-yl 2-(4-(((S)-4-(4-chlorophenyl)-3,6,9-trimethyl-6H-thieno[3,2-f][1,2,4]triazolo[4,3-a][1,4]diazepin-2-yl)ethynyl)-1H-pyrazol-1-yl)acetate]",,,IC50 (MOLM13): 17.3 nM; IC50 (MDA-MB-231): 276 nM
"Cc1c(C#Cc2cnn(CCCC(=O)OCCCOc3cccc4c3CN(C3CCC(=O)NC3=O)C4=O)c2)sc2c1C(c1ccc(Cl)cc1)=N[C@@H](C)c1nnc(C)n1-2 (stereo partly drawn) [Cpd. No. 5, 3-((2-(2,6-dioxopiperidin-3-yl)-1-oxoisoindolin-4-yl)oxy)propyl 4-(4-(((S)-4-(4-chlorophenyl)-3,6,9-trimethyl-6H-thieno[3,2-f][1,2,4]triazolo[4,3-a][1,4]diazepin-2-yl)ethynyl)-1H-pyrazol-1-yl)butanoate]",0.1,0.1,
"Cc1nnc2n1-c1sc(C#Cc3cnn(CCCC(=O)OCCCNc4cccc5c4CN(C4CCC(=O)NC4=O)C5=O)c3)c(Cc3ccccc3)c1COC2 (stereo not drawn) [Cpd. No. 18, 3-((2-(2,6-dioxopiperidin-3-yl)-1-oxoisoindolin-4-yl)amino)propyl 4-(4-((3-benzyl-9-methyl-4H,6H-thieno[2,3-e][1,2,4]triazolo[3,4-c][1,4]oxazepin-2-yl)ethynyl)-1H-pyrazol-1-yl)butanoate]",7.3,,
"Cc1c(C#Cc2cnn(CCCC(=O)OCCCOc3cccc4c3CN(C3CCC(=O)NC3=O)C4=O)c2)sc2c1C(c1ccc(Cl)cc1)=N[C@@H](CC(=O)N1CCN(C)CC1)c1nnc(C)n1-2 (stereo partly drawn) [compound 9, 3-((2-(2,6-dioxopiperidin-3-yl)-1-oxoisoindolin-4-yl)oxy)propyl 4-(4-(((S)-4-(4-chlorophenyl)-3,9-dimethyl-6-(2-(4-methylpiperazin-1-yl)-2-oxoethyl)-6H-thieno[3,2-f][1,2,4]triazolo[4,3-a][1,4]diazepin-2-yl)ethynyl)-1H-pyrazol-1-yl)butanoate]",0.2,,
"Cc1c(C#Cc2cnn(CCCC(=O)OCCOCCOCCOc3cccc4c3CN(C3CCC(=O)NC3=O)C4=O)c2)sc2c1C(c1ccc(Cl)cc1)=N[C@@H](CC(=O)N1CCN(C)CC1)c1nnc(C)n1-2 (stereo partly drawn) [compound 10, 2-(2-(2-((2-(2,6-dioxopiperidin-3-yl)-1-oxoisoindolin-4-yl)oxy)ethoxy)ethoxy)ethyl 4-(4-(((S)-4-(4-chlorophenyl)-3,9-dimethyl-6-(2-(4-methylpiperazin-1-yl)-2-oxoethyl)-6H-thieno[3,2-f][1,2,4]triazolo[4,3-a][1,4]diazepin-2-yl)ethynyl)-1H-pyrazol-1-yl)butanoate]",4,,
"Cc1c(C#Cc2cnn(CCCC(=O)OCCOCCN3CCC(Nc4cccc5c4CN(C4CCC(=O)NC4=O)C5=O)CC3)c2)sc2c1C(c1ccc(Cl)cc1)=N[C@@H](CC(=O)N1CCN(C)CC1)c1nnc(C)n1-2 (stereo partly drawn) [compound 13, 2-(2-(4-((2-(2,6-dioxopiperidin-3-yl)-1-oxoisoindolin-4-yl)amino)piperidin-1-yl)ethoxy)ethyl 4-(4-(((S)-4-(4-chlorophenyl)-3,9-dimethyl-6-(2-(4-methylpiperazin-1-yl)-2-oxoethyl)-6H-thieno[3,2-f][1,2,4]triazolo[4,3-a][1,4]diazepin-2-yl)ethynyl)-1H-pyrazol-1-yl)butanoate]",,12.2,
"Cc1c(C#Cc2cnn(CCCC(=O)OCCOCCOCCN3CCC(Nc4cccc5c4CN(C4CCC(=O)NC4=O)C5=O)CC3)c2)sc2c1C(c1ccc(Cl)cc1)=N[C@@H](CC(=O)N1CCN(C)CC1)c1nnc(C)n1-2 (stereo partly drawn) [compound 14, 2-(2-(2-(4-((2-(2,6-dioxopiperidin-3-yl)-1-oxoisoindolin-4-yl)amino)piperidin-1-yl)ethoxy)ethoxy)ethyl 4-(4-(((S)-4-(4-chlorophenyl)-3,9-dimethyl-6-(2-(4-methylpiperazin-1-yl)-2-oxoethyl)-6H-thieno[3,2-f][1,2,4]triazolo[4,3-a][1,4]diazepin-2-yl)ethynyl)-1H-pyrazol-1-yl)butanoate]",,20.7,
"Cc1nnc2n1-c1sc(C#Cc3cnn(CCCOC(=O)CCCCc4cccc5c4CN(C4CCC(=O)NC4=O)C5=O)c3)c(Cc3ccccc3)c1COC2 (stereo not drawn) [compound 19, 3-(4-((3-benzyl-9-methyl-4H,6H-thieno[2,3-e][1,2,4]triazolo[3,4-c][1,4]oxazepin-2-yl)ethynyl)-1H-pyrazol-1-yl)propyl 5-(2-(2,6-dioxopiperidin-3-yl)-1-oxoisoindolin-4-yl)pentanoate]",7.3,,
"Cc1nnc2n1-c1sc(C#Cc3cnn(CCCOC(=O)CCCc4cccc5c4CN(C4CCC(=O)NC4=O)C5=O)c3)c(Cc3ccccc3)c1COC2 (stereo not drawn) [compound 20, 3-(4-((3-benzyl-9-methyl-4H,6H-thieno[2,3-e][1,2,4]triazolo[3,4-c][1,4]oxazepin-2-yl)ethynyl)-1H-pyrazol-1-yl)propyl 4-(2-(2,6-dioxopiperidin-3-yl)-1-oxoisoindolin-4-yl)butanoate]",22.6,,
"Cc1nnc2n1-c1sc(C#Cc3cnn(CCCC(=O)OCCCN4CCN(c5cccc6c5C(=O)N(C5CCC(=O)NC5=O)C6=O)CC4)c3)c(Cc3ccccc3)c1COC2 (stereo not drawn) [compound 24, 3-(4-(2-(2,6-dioxopiperidin-3-yl)-1,3-dioxoisoindolin-4-yl)piperazin-1-yl)propyl 4-(4-((3-benzyl-9-methyl-4H,6H-thieno[2,3-e][1,2,4]triazolo[3,4-c][1,4]oxazepin-2-yl)ethynyl)-1H-pyrazol-1-yl)butanoate]",17.6,,
